Results on nine compounds are retold here after PubChem BioAssay (NCI).

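A five-concentration, 48-hour dose response in 96-well plates underlies each endpoint, interpolated linearly between surrounding concentrations. TGI denotes the concentration required for complete inhibition of growth.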 Some results are limits rather than exact numbers.

Some test systems named below: ACHN renal; HCT-15 colon; HL-60(TB) leukemia; HOP-92 NSCLC; HT29 colon; IGROV1 ovarian; M14 melanoma; NCI-H23 lung; PC-3 prostate; SK-MEL-2 melanoma; SK-MEL-5 melanoma; SN12C renal; SW-620 colon; UACC-257 melanoma; LOX IMVI melanoma; NCI-H522 lung; OVCAR-3 ovarian; SF-539 CNS; SK-OV-3 ovarian; DU-145 prostate.
Common to all, as to test: NCI-60 cell line screen, 48 h

Take `COC(=O)C1CCCN1C(=O)C(Cc1cn(S(=O)(=O)c2ccc(C)cc2)cn1)NC(=O)OC(C)(C)C` (configuration not stated): the TGI in the experiment with ACHN renal, with HCT-15 colon, in the experiment with HL-60(TB) leukemia, with HOP-92 NSCLC, with HT29 colon and in the experiment with IGROV1 ovarian was greater than 100 µM each time. Besides, the TGI in the experiment with M14 melanoma, in the experiment with NCI-H23 lung, with PC-3 prostate, with SK-MEL-2 melanoma, with SK-MEL-5 melanoma and in the experiment on SN12C renal was greater than 100 µM in each case. The TGI in the experiment with SW-620 colon and with UACC-257 melanoma was greater than 100 µM each time.

In the case of `OCc1ccc(C2CC(c3ccco3)=NN2c2ccccc2)o1` (configuration not stated), the TGI in the experiment on ACHN renal, in the experiment with HCT-15 colon, in the experiment on HL-60(TB) leukemia, in the experiment with HT29 colon, in the experiment with IGROV1 ovarian and in the experiment on LOX IMVI melanoma was greater than 100 µM in each case. Further, the TGI in the experiment with M14 melanoma, with NCI-H23 lung, in the experiment on NCI-H522 lung, in the experiment on OVCAR-3 ovarian, in the experiment with SF-539 CNS and with SK-MEL-2 melanoma was greater than 100 µM in each case. For the same compound, the TGI in the experiment with SK-MEL-5 melanoma, in the experiment with SN12C renal and with SW-620 colon was greater than 100 µM in each case.

As to `O=C(CN(c1ccccc1)c1ccccc1)n1nnc2ccccc21`, the TGI was greater than 100 µM in the experiment on ACHN renal; greater than 100 µM in the experiment with HCT-15 colon; greater than 100 µM in the experiment with HL-60(TB) leukemia; greater than 100 µM in the experiment on HT29 colon; greater than 100 µM in the experiment with IGROV1 ovarian; 70.3 µM with LOX IMVI melanoma. The TGI is greater than 100 µM in the experiment with M14 melanoma; greater than 100 µM in the experiment on NCI-H23 lung; 59.1 µM in the experiment on NCI-H522 lung; greater than 100 µM in the experiment on OVCAR-3 ovarian; greater than 100 µM in the experiment on SF-539 CNS; 96 µM with SK-MEL-2 melanoma. For the same compound, the TGI in the experiment with SK-MEL-5 melanoma is 69.3 µM; in the experiment on SK-OV-3 ovarian, greater than 100 µM; in the experiment with SN12C renal, greater than 100 µM; in the experiment on SW-620 colon, greater than 100 µM; with UACC-257 melanoma it was greater than 100 µM.

Consider `Cc1ccc(O)c(-c2cscn2)c1`, for which the TGI in the experiment on ACHN renal is greater than 100 µM; with HCT-15 colon, greater than 100 µM; with HL-60(TB) leukemia it was 22.2 µM; in the experiment on HOP-92 NSCLC it was greater than 100 µM; in the experiment with HT29 colon it was greater than 100 µM; in the experiment with IGROV1 ovarian, greater than 100 µM. Besides, the TGI in the experiment with LOX IMVI melanoma, with M14 melanoma, in the experiment with NCI-H23 lung, with OVCAR-3 ovarian, in the experiment on PC-3 prostate and with SF-539 CNS was greater than 100 µM in each case. Besides, the TGI in the experiment with SK-MEL-2 melanoma, in the experiment with SK-MEL-5 melanoma, with SK-OV-3 ovarian, in the experiment with SN12C renal, in the experiment with SW-620 colon and in the experiment with UACC-257 melanoma was greater than 100 µM in each case.

For `COc1cc2c3c(c1OC)C1(C=CC(=O)C=C1)C[C@H]3N(C)CC2`, the TGI with ACHN renal, with HCT-15 colon, in the experiment on HOP-92 NSCLC, with HT29 colon, with IGROV1 ovarian and with LOX IMVI melanoma was greater than 100 µM throughout. For the same compound, the TGI with M14 melanoma, in the experiment with NCI-H23 lung, in the experiment with NCI-H522 lung, in the experiment with OVCAR-3 ovarian, with SF-539 CNS and in the experiment with SK-MEL-2 melanoma was greater than 100 µM in each case. Further, the TGI with SK-MEL-5 melanoma, with SK-OV-3 ovarian, in the experiment with SN12C renal, in the experiment with SW-620 colon and in the experiment on UACC-257 melanoma was greater than 100 µM throughout.

For `CC1CCCC(CC(=O)O)(CC(=O)O)C1` (configuration not stated), the TGI in the experiment on ACHN renal, with HCT-15 colon, in the experiment on HL-60(TB) leukemia, in the experiment on HOP-92 NSCLC, in the experiment on HT29 colon and in the experiment on IGROV1 ovarian was greater than 100 µM throughout. For the same compound, the TGI in the experiment with LOX IMVI melanoma, in the experiment on M14 melanoma, in the experiment with NCI-H23 lung, with NCI-H522 lung, with PC-3 prostate and in the experiment with SF-539 CNS was greater than 100 µM each time. The TGI in the experiment on SK-MEL-2 melanoma, with SK-MEL-5 melanoma, in the experiment with SN12C renal, with SW-620 colon and in the experiment with UACC-257 melanoma was greater than 100 µM throughout.

Regarding `CC(=O)O[C@]12CCCCCC1C1(O)C(O)CCCC[C@H]12` (some centres not stated), the TGI in the experiment on ACHN renal, in the experiment on HCT-15 colon, in the experiment with HL-60(TB) leukemia, with HT29 colon, in the experiment on LOX IMVI melanoma and with M14 melanoma was greater than 100 µM throughout. The TGI with NCI-H23 lung, with NCI-H522 lung, with SK-MEL-2 melanoma, in the experiment on SK-MEL-5 melanoma, in the experiment on SK-OV-3 ovarian and in the experiment with SN12C renal was greater than 100 µM in each case. Moreover, the TGI with SW-620 colon and in the experiment with UACC-257 melanoma was greater than 100 µM throughout.

With `CCOc1ccc(/C=C2/C(=O)N=C(NC(C)=O)N2C)cc1`, the TGI in the experiment with ACHN renal was greater than 100 µM; with DU-145 prostate, greater than 100 µM; with HCT-15 colon it was greater than 100 µM; in the experiment with HL-60(TB) leukemia, 71.7 µM; in the experiment on HOP-92 NSCLC, greater than 100 µM; in the experiment with HT29 colon, greater than 100 µM. Also, the TGI with IGROV1 ovarian, with LOX IMVI melanoma, with M14 melanoma, with NCI-H23 lung, in the experiment on OVCAR-3 ovarian and in the experiment on SF-539 CNS was greater than 100 µM each time. The TGI in the experiment with SK-MEL-2 melanoma, in the experiment on SK-MEL-5 melanoma, in the experiment with SK-OV-3 ovarian, in the experiment on SN12C renal, in the experiment with SW-620 colon and in the experiment with UACC-257 melanoma was greater than 100 µM throughout.

Turning to `O=C1NC2OC(C(O)CO)C(O)C2O1` (configuration not stated), the TGI in the experiment on ACHN renal, in the experiment on HCT-15 colon, in the experiment with HL-60(TB) leukemia, in the experiment with HOP-92 NSCLC, in the experiment on HT29 colon and in the experiment with IGROV1 ovarian was greater than 100 µM throughout. The TGI in the experiment on LOX IMVI melanoma, in the experiment with M14 melanoma, with NCI-H23 lung, in the experiment on NCI-H522 lung, with OVCAR-3 ovarian and in the experiment with SK-MEL-2 melanoma was greater than 100 µM in each case. For the same compound, the TGI with SK-MEL-5 melanoma, in the experiment with SK-OV-3 ovarian, with SN12C renal, with SW-620 colon and in the experiment with UACC-257 melanoma was greater than 100 µM in each case.
